# Source: patent US9862716B2, “TRKA kinase inhibitors, compositions and methods thereof” (Merck Sharp & Dohme Corp., priority 2014, dated 2018)
# Target: T1, human TrkA receptor (Homo sapiens, UniProt P04629)
# T1 construct: host or cells: U2OS cells (PathHunter cell line)
# Experiment: DiscoverX PathHunter TrkA functional assay (NGF-stimulated U2OS cells)
# Type: cell-based
# Settings: U2OS cells expressing human TrkA-PK, Shc1-EA and p75NTR; compound 1 h, then NGF at ~80% of maximal response for 3 h; luminescence
# T1 sequence (P04629 33-796): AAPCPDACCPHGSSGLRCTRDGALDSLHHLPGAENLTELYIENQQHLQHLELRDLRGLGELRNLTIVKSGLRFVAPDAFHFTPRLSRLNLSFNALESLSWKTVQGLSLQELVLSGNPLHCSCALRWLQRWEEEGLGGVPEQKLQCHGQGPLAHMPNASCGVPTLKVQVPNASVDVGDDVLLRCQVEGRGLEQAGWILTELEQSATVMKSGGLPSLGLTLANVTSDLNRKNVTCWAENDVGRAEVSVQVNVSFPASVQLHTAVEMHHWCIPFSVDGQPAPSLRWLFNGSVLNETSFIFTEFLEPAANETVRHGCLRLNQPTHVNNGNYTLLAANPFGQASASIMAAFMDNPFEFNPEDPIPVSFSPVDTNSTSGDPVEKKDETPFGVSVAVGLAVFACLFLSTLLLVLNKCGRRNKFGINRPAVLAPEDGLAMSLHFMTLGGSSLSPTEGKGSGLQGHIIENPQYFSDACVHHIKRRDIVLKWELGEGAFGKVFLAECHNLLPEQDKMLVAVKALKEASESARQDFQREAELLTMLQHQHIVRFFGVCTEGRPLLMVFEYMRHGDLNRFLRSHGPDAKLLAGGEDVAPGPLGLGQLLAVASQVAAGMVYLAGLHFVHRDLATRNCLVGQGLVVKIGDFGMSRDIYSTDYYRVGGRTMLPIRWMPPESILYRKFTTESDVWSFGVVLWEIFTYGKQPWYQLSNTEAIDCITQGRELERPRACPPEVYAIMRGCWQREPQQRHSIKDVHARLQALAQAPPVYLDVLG
row,Compound,IC50 [nM]
1,"O=C(Nc1c(-c2ccccc2)nc2ccccn12)c1cc(-c2ncccn2)c(C(F)(F)F)cc1F [Compound 105, 2-fluoro-N-(2-phenylimidazo[1,2-a]pyridin-3-yl)-5-pyrimidin-2-yl-4-(trifluoromethyl) benzamide]",1.4
2,"Cn1ccc(-c2cc(C(=O)Nc3c(-c4ccccc4)nc4ncccn34)c(Cl)cc2C(F)(F)F)n1 [Compound 24, 2-chloro-5-(1-methyl-1H-pyrazol-3-yl)-N-(2-phenylimidazo[1,2-a]pyrimidin-3-yl)-4-(trifluoromethyl) benzamide]",2.8
3,"O=C(Nc1c(-c2ccccc2)nn2ccccc12)c1cc(-c2ncccn2)c(C(F)(F)F)cc1F [Compound 85, 2-fluoro-N-(2-phenylpyrazolo[1,5-a]pyridin-3-yl)-5-pyrimidin-2-yl-4-(trifluoromethyl) benzamide]",5
4,"Cn1ccc(-c2cc(C(=O)Nc3c(-c4ccccc4)[nH]c4ccc(C#N)cc34)c(F)cc2C(F)(F)F)n1 [Compound 108, N-(5-cyano-2-phenyl-1H-indol-3-yl)-2-fluoro-5-(1-methyl-1H-pyrazol-3-yl)-4-(trifluoromethyl) benzamide]",1
5,"Cn1ccc(-c2cc(C(=O)Nc3c(-c4ccccc4)nc4cc(C(C)(C)O)ccn34)c(F)cc2C(F)(F)F)n1 [Compound 50, 2-fluoro-N-[7-(1-hydroxy-1-methylethyl)-2-phenylimidazo[1,2-a]pyridin-3-yl]-5-(1-methyl-1H-pyrazol-3-yl)-4-(trifluoromethyl) benzamide]",0.45
6,"COc1ccn2c(NC(=O)c3cc(-c4ncccn4)c(C(F)(F)F)cc3F)c(-c3ccccc3)nc2c1 [Compound 59, 2-fluoro-N-(7-methoxy-2-phenylimidazo[1,2-a]pyridin-3-yl)-5-pyrimidin-2-yl-4-(trifluoromethyl) benzamide]",1.7
7,"Cn1ccc(-c2cc(C(=O)Nc3c(-c4ccccc4)nc4cc(Br)ccn34)ccc2C(F)(F)F)n1 [Compound 39, N-(7-bromo-2-phenylimidazo[1,2-a]pyridin-3-yl)-3-(1-methyl-1H-pyrazol-3-yl)-4-(trifluoromethyl) benzamide]",2.7
8,"CNC(=O)NCc1ccn2c(NC(=O)c3ccc(C(F)(F)F)c(-c4ccn(C)n4)c3)c(-c3ccccc3)nc2c1 [Compound 81, N-(7-{[(methylcarbamoyl)amino]methyl}-2-phenylimidazo[1,2-a]pyridin-3-yl)-3-(1-methyl-1H-pyrazol-3-yl)-4-(trifluoromethyl) benzamide]",15
9,"Cn1ccc(-c2cc(C(=O)Nc3c(-c4ccccc4)nc4ccccn34)c(O)cc2C(F)(F)F)n1 [Compound 32, 2-hydroxy-5-(1-methyl-1H-pyrazol-3-yl)-N-(2-phenylimidazo[1,2-a]pyridin-3-yl)-4-(trifluoromethyl) benzamide]",477
10,"Cn1ccc(-c2cc(C(=O)Nc3c(-c4ccncc4)nc4ccccn34)c(Cl)cc2C(F)(F)F)n1 [Compound 23, 2-chloro-5-(1-methyl-1H-pyrazol-3-yl)-N-(2-pyridin-4-ylimidazo[1,2-a]pyridin-3-yl)-4-(trifluoromethyl) benzamide]",2
11,"Cn1ccc(-c2cc(C(=O)Nc3c(-c4ccccc4)nc4cc(CNC(=O)CO)ccn34)ccc2C(F)(F)F)n1 [Compound 80, N-(7-{[(hydroxyacetyl)amino]methyl}-2-phenylimidazo[1,2-a]pyridin-3-yl)-3-(1-methyl-1H-pyrazol-3-yl)-4-(trifluoromethyl) benzamide]",20
12,"CC(O)c1ccc2[nH]c(-c3ccccc3)c(NC(=O)c3cc(-c4ncccn4)c(C(F)(F)F)cc3F)c2c1 (single isomer, unassigned) [Compound 95, (R or S)-2-fluoro-N-[5-(1-hydroxyethyl)-2-phenyl-1H-indol-3-yl]-5-pyrimidin-2-yl-4-(trifluoromethyl) benzamide]",4.9
13,"Cn1ccc(-c2cc(C(=O)Nc3c(-c4ccccc4)nc4ccccn34)ccc2C(F)(F)F)n1 [Compound 4, 3-(1-methyl-1H-pyrazol-3-yl)-N-(2-phenylimidazo[1,2-a]pyridin-3-yl)-4-(trifluoromethyl) benzamide]",1.4
14,"Cc1csc(-c2ccn3c(NC(=O)c4ccc(C(F)(F)F)c(-c5ccn(C)n5)c4)c(-c4ccccc4)nc3c2)n1 [Compound 87, 3-(1-methyl-1H-pyrazol-3-yl)-N-[7-(4-methyl-1,3-thiazol-2-yl)-2-phenylimidazo[1,2-a]pyridin-3-yl]-4-(trifluoromethyl) benzamide]",0.68
15,"Cn1ccc(-c2cc(C(=O)Nc3c(-c4ccccc4)[nH]c4ccccc34)c(F)cc2C(F)(F)F)n1 [Compound 72, 2-fluoro-5-(1-methyl-1H-pyrazol-3-yl)-N-(2-phenyl-1H-indol-3-yl)-4-(trifluoromethyl) benzamide]",4.1
16,"Cn1ccc(-c2cc(C(=O)Nc3c(-c4ccccc4)nc4ccc(F)cn34)ccc2C(F)(F)F)n1 [Compound 21, N-(6-fluoro-2-phenylimidazo[1,2-a]pyridin-3-yl)-3-(1-methyl-1H-pyrazol-3-yl)-4-(trifluoromethyl) benzamide]",3.8

row,Compound,IC50 [nM]
1,"Cn1ccc(-c2cc(C(=O)Nc3c(-c4ccccc4)nc4cc(C(O)C(F)(F)F)ccn34)ccc2C(F)(F)F)n1 (single isomer, unassigned) [Compound 64, (R or S)-3-(1-methyl-1H-pyrazol-3-yl)-N-[2-phenyl-7-(2,2,2-trifluoro-1-hydroxyethyl)imidazo[1,2-a]pyridin-3-yl]-4-(trifluoromethyl) benzamide]",1.1
2,"CC(c1ccn2c(NC(=O)c3cc(-c4ccn(C)n4)c(C(F)(F)F)cc3F)c(-c3ccccc3)nc2c1)N(C)C (single isomer, unassigned) [Compound 51, (R or S)-N-{7-[1-(dimethylamino)ethyl]-2-phenylimidazo[1,2-a]pyridin-3-yl}-2-fluoro-5-(1-methyl-1H-pyrazol-3-yl)-4-(trifluoromethyl) benzamide]",3.5
3,"Cn1ccc(-c2cc(C(=O)Nc3c(-c4ccncn4)nc4ccccn34)ccc2C(F)(F)F)n1 [Compound 8, 3-(1-methyl-1H-pyrazol-3-yl)-N-(2-pyrimidin-4-ylimidazo[1,2-a]pyridin-3-yl)-4-(trifluoromethyl) benzamide]",568
4,"O=C(Nc1c(-c2ccccc2)nc2ccccn12)c1cc(-c2cc[nH]n2)c(C(F)(F)F)cc1F [Compound 40, 2-fluoro-N-(2-phenylimidazo[1,2-a]pyridin-3-yl)-5-(1H-pyrazol-3-yl)-4-(trifluoromethyl) benzamide]",2.7
5,"O=C(Nc1c(-c2ccccc2)nc2ccccn12)c1cc(-c2ncccn2)c(Cl)cc1F [Compound 30, 4-chloro-2-fluoro-N-(2-phenylimidazo[1,2-a]pyridin-3-yl)-5-pyrimidin-2-ylbenzamide]",40
6,"CC(=O)NCCc1ccn2c(NC(=O)c3ccc(C(F)(F)F)c(-c4ccn(C)n4)c3)c(-c3ccccc3)nc2c1 [Compound 101, N-{7-[2-(acetylamino)ethyl]-2-phenylimidazo[1,2-a]pyridin-3-yl}-3-(1-methyl-1H-pyrazol-3-yl)-4-(trifluoromethyl) benzamide]",10
7,"Cn1ccc(-c2cc(C(=O)Nc3c(-c4ccccc4)nc4ccc(CO)cn34)ccc2C(F)(F)F)n1 [Compound 37, N-[6-(hydroxymethyl)-2-phenylimidazo[1,2-a]pyridin-3-yl]-3-(1-methyl-1H-pyrazol-3-yl)-4-(trifluoromethyl) benzamide]",1.8
8,"O=C(Nc1c(-c2ccccc2)nc2ccccn12)c1ccc(C(F)(F)F)c(-c2ccn(C(F)F)n2)c1 [Compound 11, 3-[1-(difluoromethyl)-1H-pyrazol-3-yl]-N-(2-phenylimidazo[1,2-a]pyridin-3-yl)-4-(trifluoromethyl) benzamide]",3.2
9,"Cn1ccc(-c2cc(C(=O)Nc3c(-c4ccccc4)nc4ccc(C(O)C(F)(F)F)cn34)ccc2C(F)(F)F)n1 (single isomer, unassigned) [Compound 65, (R or S)-3-(1-methyl-1H-pyrazol-3-yl)-N-[2-phenyl-6-(2,2,2-trifluoro-1-hydroxyethyl)imidazo[1,2-a]pyridin-3-yl]-4-(trifluoromethyl) benzamide]",12
10,"Cn1ccc(-c2cc(C(=O)Nc3nc4ccccc4nc3-c3ccccc3)ccc2C(F)(F)F)n1 [Compound 31, 3-(1-methyl-1H-pyrazol-3-yl)-N-(3-phenylquinoxalin-2-yl)-4-(trifluoromethyl) benzamide]",27
11,"Cn1ccc(-c2cc(C(=O)Nc3c(-c4ccccc4)nn4cc(C#N)ccc34)c(F)cc2C(F)(F)F)n1 [Compound 111, N-(6-cyano-2-phenylpyrazolo[1,5-a]pyridin-3-yl)-2-fluoro-5-(1-methyl-1H-pyrazol-3-yl)-4-(trifluoromethyl) benzamide]",1000
12,"CC(O)c1ccn2c(NC(=O)c3ccc(C(F)(F)F)c(-c4ccn(C(F)F)n4)c3)c(-c3ccccc3)nc2c1 (single isomer, unassigned) [Compound 78, (R or S)-3-[1-(difluoromethyl)-1H-pyrazol-3-yl]-N-[7-(1-hydroxyethyl)-2-phenylimidazo[1,2-a]pyridin-3-yl]-4-(trifluoromethyl) benzamide]",4.8
13,"O=C(Nc1c(-c2ccccc2)nc2ccccn12)c1ccc(C(F)(F)F)c(-c2cc[nH]n2)c1 [Compound 9, N-(2-phenylimidazo[1,2-a]pyridin-3-yl)-3-(1H-pyrazol-3-yl)-4-(trifluoromethyl) benzamide]",8.8
14,"Cn1ccc(-c2cc(C(=O)Nc3c(-c4ccccc4)nc4sccn34)ccc2C(F)(F)F)n1 [Compound 12, 3-(1-methyl-1H-pyrazol-3-yl)-N-(6-phenylimidazo[2,1-b][1,3]thiazol-5-yl)-4-(trifluoromethyl) benzamide]",1.9
15,"Cn1ccc(-c2cc(C(=O)Nc3c(-c4ccccc4)nc4cc(CNS(C)(=O)=O)ccn34)ccc2C(F)(F)F)n1 [Compound 84, 3-(1-methyl-1H-pyrazol-3-yl)-N-(7-{[(methylsulfonyl)amino]methyl}-2-phenylimidazo[1,2-a]pyridin-3-yl)-4-(trifluoromethyl) benzamide]",3.1
